Results on twelve compounds are retold here after PubChem BioAssay AID504530 (Southern Research Specialized Biocontainment Screening …, 2011).

Usually CC50 stands for the concentration that lowers cell viability or growth by half.

The subject of the experiment is human PBMC cytotoxicity, % cell control. The experiment is described as follows: human PBMC cytotoxicity, dose response, cytotoxicity control for HIV-1 antiviral lead project, cell-based, primary PBMCs, TC50 (AID 504530).
In the case of `Cc1c2c(=O)n(-c3nc4ccccc4s3)nc-2cc(O)n1Cc1ccccc1Cl`, the half-maximal cytotoxic concentration (CC50) was 38.9 µM. Then `COc1ccc(Cn2c(O)cc3nn(-c4nc5ccccc5s4)c(=O)c-3c2C)cc1`, with 19.2 µM; and `Cc1c2c(=O)n(-c3nc4ccccc4s3)nc-2cc(O)n1Cc1cccs1`, with 25.7 µM; and `Cc1c2c(=O)n(-c3nc4ccccc4s3)nc-2cc(O)n1Cc1ccncc1`, with 2.4 µM.

Regarding `Cc1c2c(=O)n(-c3nc4ccccc4s3)nc-2cc(O)n1Cc1cccnc1`, the CC50 is 2.15 µM.

With `Cc1c2c(=O)n(-c3nc4ccccc4s3)nc-2cc(O)n1CCc1cccs1`, the CC50 is 71.2 µM. As to `Cc1c2c(=O)n(-c3nc4ccccc4s3)nc-2cc(O)n1CCc1ccc(O)cc1`, the cytotoxic concentration (CC50) is 2.11 µM. Take `Cc1c2c(=O)n(-c3nc4ccccc4s3)nc-2cc(O)n1Cc1ccc(F)cc1`: the CC50 was 18.7 µM. Take `Cc1c2c(=O)n(-c3nc4ccccc4s3)nc-2cc(O)n1CCC(C)C`: the CC50 was 41.1 µM. The result for `Cc1c2c(=O)n(-c3nc4ccccc4s3)nc-2cc(O)n1C1CC1` reads 2.6 µM; that for `COc1ccccc1Cn1c(O)cc2nn(-c3nc4ccccc4s3)c(=O)c-2c1C`, 22 µM; that for `COc1ccc(CCn2c(O)cc3nn(-c4nc5ccccc5s4)c(=O)c-3c2C)cc1`, 60 µM.
